Consider 17 compounds from patent US20250236608A1, “EGFR INHIBITORS” (Blueprint Medicines Corporation, priority 2022, published 2025).

The target of one experiment is EGFR L858R (Homo sapiens (Human), UniProt P00533, L858R). As to the kind of experiment: Biochemical EGFR inhibition assay, EGFR L858R. The note with it: Caliper mobility shift; 1.0 mM ATP or ATP Km; read-out: Enz EGFR_L858R IC50.
The target in another experiment is EGFR (d746-750) (Homo sapiens (Human), UniProt P00533, DEL746-750). In words: Biochemical EGFR inhibition assay, EGFR (d746-750). The note with it: Caliper mobility shift; 1.0 mM ATP or ATP Km; read-out: Enz EGFR_Exon19-del746-750 IC50.
Sequence of EGFR (d746-750) (P00533 other isoform, or with tags, fused parts or gaps del 1-694/del 746-750 limits assumed): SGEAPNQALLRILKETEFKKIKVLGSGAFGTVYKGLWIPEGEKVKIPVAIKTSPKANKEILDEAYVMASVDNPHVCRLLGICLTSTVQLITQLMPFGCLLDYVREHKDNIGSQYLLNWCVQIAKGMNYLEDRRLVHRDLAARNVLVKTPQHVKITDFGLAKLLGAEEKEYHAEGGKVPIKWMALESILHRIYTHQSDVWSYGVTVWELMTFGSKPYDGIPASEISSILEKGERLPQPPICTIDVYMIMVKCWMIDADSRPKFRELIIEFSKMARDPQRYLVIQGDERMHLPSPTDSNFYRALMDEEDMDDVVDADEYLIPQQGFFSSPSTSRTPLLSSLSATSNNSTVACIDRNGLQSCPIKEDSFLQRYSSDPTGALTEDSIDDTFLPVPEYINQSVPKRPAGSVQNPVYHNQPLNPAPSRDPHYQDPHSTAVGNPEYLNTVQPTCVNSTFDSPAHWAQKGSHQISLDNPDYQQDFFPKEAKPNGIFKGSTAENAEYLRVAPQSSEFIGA
Experiment [1] addresses pEGFR (Tyr1068) in PC-9 cells (Ex19Del) (Homo sapiens (Human), UniProt P00533, DEL746-750). As to the kind of experiment: PC-9 pEGFR AlphaLISA assay. The experiment is classed as cell-based. The settings on record: 4 hours incubation, p-EGFR (Tyr1068) AlphaLISA, read-out: Ext pEGFR_PC-9 Ex19Del IC50. An outline of the steps: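 Phospho-EGFR (Tyr1068) was quantified by AlphaLISA SureFire Ultra in lysates of PC-9 cells exposed for 4 h to compound (4-fold, 10-point dilutions).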

Sequence of pEGFR (Tyr1068) in PC-9 cells (Ex19Del) (P00533 other isoform, or with tags, fused parts or gaps del 746-750): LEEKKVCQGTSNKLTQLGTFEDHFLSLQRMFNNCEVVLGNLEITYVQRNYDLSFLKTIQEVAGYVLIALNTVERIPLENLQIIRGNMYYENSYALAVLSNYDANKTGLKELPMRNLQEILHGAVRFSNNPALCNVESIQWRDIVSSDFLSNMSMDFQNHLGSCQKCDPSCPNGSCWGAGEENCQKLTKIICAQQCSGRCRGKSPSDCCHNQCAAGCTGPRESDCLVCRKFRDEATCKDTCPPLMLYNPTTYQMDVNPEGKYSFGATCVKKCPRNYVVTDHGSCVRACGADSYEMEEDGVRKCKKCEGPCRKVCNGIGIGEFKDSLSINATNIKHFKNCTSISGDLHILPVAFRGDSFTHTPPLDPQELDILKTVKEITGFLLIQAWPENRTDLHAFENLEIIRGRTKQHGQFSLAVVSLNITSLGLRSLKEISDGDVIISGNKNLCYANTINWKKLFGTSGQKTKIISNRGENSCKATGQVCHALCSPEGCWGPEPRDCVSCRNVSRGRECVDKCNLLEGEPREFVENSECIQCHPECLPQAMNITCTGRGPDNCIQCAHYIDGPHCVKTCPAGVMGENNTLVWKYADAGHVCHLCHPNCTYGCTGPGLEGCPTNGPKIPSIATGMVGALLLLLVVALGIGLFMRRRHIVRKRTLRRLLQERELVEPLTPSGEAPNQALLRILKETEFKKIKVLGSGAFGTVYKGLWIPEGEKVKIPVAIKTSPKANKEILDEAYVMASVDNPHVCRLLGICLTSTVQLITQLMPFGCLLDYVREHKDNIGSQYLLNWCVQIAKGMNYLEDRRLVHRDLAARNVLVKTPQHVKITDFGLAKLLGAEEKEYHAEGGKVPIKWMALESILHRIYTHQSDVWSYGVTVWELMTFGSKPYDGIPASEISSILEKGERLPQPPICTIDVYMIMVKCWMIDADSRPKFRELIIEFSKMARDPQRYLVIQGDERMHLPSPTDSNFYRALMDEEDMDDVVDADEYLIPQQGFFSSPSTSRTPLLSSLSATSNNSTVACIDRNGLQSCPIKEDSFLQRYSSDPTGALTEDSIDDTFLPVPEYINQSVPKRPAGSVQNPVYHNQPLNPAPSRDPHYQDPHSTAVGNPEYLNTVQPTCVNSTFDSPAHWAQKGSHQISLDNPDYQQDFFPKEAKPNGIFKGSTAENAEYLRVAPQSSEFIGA
Sequence of EGFR L858R (P00533 25-1210 L858R): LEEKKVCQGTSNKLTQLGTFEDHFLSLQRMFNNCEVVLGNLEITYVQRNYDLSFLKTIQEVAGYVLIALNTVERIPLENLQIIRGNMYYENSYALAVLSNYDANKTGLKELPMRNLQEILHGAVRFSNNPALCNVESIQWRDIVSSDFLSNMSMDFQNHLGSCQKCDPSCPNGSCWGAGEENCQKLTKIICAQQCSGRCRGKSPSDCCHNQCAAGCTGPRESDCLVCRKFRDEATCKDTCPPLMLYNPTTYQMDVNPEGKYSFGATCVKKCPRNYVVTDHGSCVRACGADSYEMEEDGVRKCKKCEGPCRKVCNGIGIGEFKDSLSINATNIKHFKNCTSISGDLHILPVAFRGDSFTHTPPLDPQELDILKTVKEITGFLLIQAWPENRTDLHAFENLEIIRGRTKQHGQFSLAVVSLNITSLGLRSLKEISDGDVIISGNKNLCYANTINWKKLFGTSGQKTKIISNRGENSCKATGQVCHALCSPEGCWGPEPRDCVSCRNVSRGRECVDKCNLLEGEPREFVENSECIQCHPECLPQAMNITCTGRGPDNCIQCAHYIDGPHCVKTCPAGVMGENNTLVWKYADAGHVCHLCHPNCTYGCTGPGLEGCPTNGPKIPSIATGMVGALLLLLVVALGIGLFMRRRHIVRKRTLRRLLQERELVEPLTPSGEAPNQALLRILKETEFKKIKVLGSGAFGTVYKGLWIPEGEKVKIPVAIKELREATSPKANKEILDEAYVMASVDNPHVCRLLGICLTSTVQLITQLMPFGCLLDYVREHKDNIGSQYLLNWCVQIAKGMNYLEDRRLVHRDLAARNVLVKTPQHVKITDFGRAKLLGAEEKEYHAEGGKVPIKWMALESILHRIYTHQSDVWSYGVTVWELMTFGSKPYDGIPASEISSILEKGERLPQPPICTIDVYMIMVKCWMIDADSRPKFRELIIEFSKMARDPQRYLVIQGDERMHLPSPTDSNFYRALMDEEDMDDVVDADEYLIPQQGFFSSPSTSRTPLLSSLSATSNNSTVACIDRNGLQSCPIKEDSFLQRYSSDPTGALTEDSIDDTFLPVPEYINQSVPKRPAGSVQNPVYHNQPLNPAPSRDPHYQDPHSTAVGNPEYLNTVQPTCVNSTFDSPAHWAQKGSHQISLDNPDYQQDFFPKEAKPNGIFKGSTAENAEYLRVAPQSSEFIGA

The IC50 is the midpoint of a concentration-inhibition curve. As to `COc1cc2ncnc(-c3cn(C)nc3-c3ccccc3)c2nc1NC(=O)C1CC1` [Example 355, N-(7-methoxy-4-(1-methyl-3-phenyl-1H-pyrazol-4-yl)pyrido[3,2-d]pyrimidin-6-yl)cyclopropanecarboxamide], the IC50 turned out to be 1.7 nM at EGFR L858R, 1 nM at EGFR (d746-750) and 0.8 nM in experiment [1].

With `COc1cc2ncnc(-c3cn(C)nc3-c3ccccc3)c2nc1OC(=O)N1CCN(C)C[C@@H]1C` [Example 55, 7-methoxy-4-(1-methyl-3-phenyl-1H-pyrazol-4-yl)pyrido[3,2-d]pyrimidin-6-yl (S)-2,4-dimethylpiperazine-1-carboxylate], the IC50 at EGFR L858R stood at 5 nM; at EGFR (d746-750), 2 nM; in experiment [1] it was 3.6 nM.

For `CCC(=O)Nc1cc2c(-c3cn(C)nc3-c3ccccc3)ncnc2cc1-c1ncccn1` [Example 449, N-(4-(1-methyl-3-phenyl-1H-pyrazol-4-yl)-7-(pyrimidin-2-yl)quinazolin-6-yl)propionamide], the IC50 was 1.3 nM at EGFR L858R, 0.9 nM at EGFR (d746-750) and 1.9 nM in experiment [1].

With `COc1cc2ncnc(-c3cn(C)nc3-c3ccccc3)c2cc1-c1ccc(OC)c2n[nH]cc12` [Example 151, 7-methoxy-6-(7-methoxy-2H-indazol-4-yl)-4-(1-methyl-3-phenyl-1H-pyrazol-4-yl)quinazoline], the IC50 on EGFR L858R worked out at 8.2 nM; at EGFR (d746-750), 1.9 nM; in experiment [1], 8.7 nM.

Turning to `COc1cc2ncnc(-c3cn(C)nc3-c3ccccc3)c2cc1NC(=O)[C@H](C)F` (single isomer, unassigned) [Example 244, (S)-2-fluoro-N-(7-methoxy-4-(1-methyl-3-phenyl-1H-pyrazol-4-yl)quinazolin-6-yl) propenamide or (R)-2-fluoro-N-(7-methoxy-4-(1-methyl-3-phenyl-1H-pyrazol-4-yl)quinazolin-6-yl) propenamide], the IC50 on EGFR L858R came to 2.2 nM; at EGFR (d746-750) it was 1.3 nM; in experiment [1], 2.3 nM.

For the compound `COc1cc2ncnc(-c3cn(C)nc3-c3ccccc3)c2cc1NC(=O)[C@H]1CCCN1C` (single isomer, unassigned) [Example 242, (R)—N-(7-methoxy-4-(1-methyl-3-phenyl-1H-pyrazol-4-yl)quinazolin-6-yl)-1-methylpyrrolidine-2-carboxamide or (S)—N-(7-methoxy-4-(1-methyl-3-phenyl-1H-pyrazol-4-yl)quinazolin-6-yl)-1-methylpyrrolidine-2-carboxamide], the IC50 was found to be 7 nM on EGFR L858R, 2.1 nM at EGFR (d746-750) and 6.6 nM in experiment [1].

For the compound `CCn1cc(-c2ncnc3cc(OC)c([C@@H](C)O)cc23)c(-c2ccccc2)n1` (single isomer, unassigned) [Example 106, (R)-1-(4-(1-ethyl-3-phenyl-1H-pyrazol-4-yl)-7-methoxyquinazolin-6-yl)ethan-1-ol or (S)-1-(4-(1-ethyl-3-phenyl-1H-pyrazol-4-yl)-7-methoxyquinazolin-6-yl)ethan-1-ol], the results for the IC50 (at EGFR L858R; at EGFR (d746-750); in experiment [1]) were 3.4 nM, 1.8 nM and 10.9 nM, respectively.

On to `COc1cc2ncnc(-c3cn(C)nc3-c3ccccc3F)c2nc1NC(=O)C1CC1` [Example 356, N-(4-(3-(2-fluorophenyl)-1-methyl-1H-pyrazol-4-yl)-7-methoxypyrido[3,2-d]pyrimidin-6-yl)cyclopropanecarboxamide], for which the IC50 at EGFR L858R stood at 1.9 nM; on EGFR (d746-750) it was 1.1 nM; in experiment [1], 1.2 nM.

`COc1cc2ncnc(-c3cn(C)nc3-c3ccccc3)c2nc1OC(C)c1nnnn1C` (stereo not drawn) [Example 29, 7-methoxy-6-(1-(1-methyl-1H-tetrazol-5-yl)ethoxy)-4-(1-methyl-3-phenyl-1H-pyrazol-4-yl)pyrido[3,2-d]pyrimidine]: the IC50 at EGFR L858R came out at 4.8 nM; at EGFR (d746-750) it was 1.9 nM; in experiment [1], 11.3 nM.

As for `COc1cc2ncnc(-c3cn(CC(F)F)nc3-c3ccccc3)c2nc1OC` [Example 20, 4-(1-(2,2-difluoroethyl)-3-phenyl-1H-pyrazol-4-yl)-6,7-dimethoxypyrido[3,2-d]pyrimidine], the IC50 came out at 1.2 nM on EGFR L858R, 0.5 nM at EGFR (d746-750) and 0.9 nM in experiment [1].

Take `COc1cc2ncnc(-c3cn(C4CC4)nc3-c3ccccc3)c2nc1NC(=O)C1(C(F)(F)F)CC1` [Example 367, N-(4-(1-cyclopropyl-3-phenyl-1H-pyrazol-4-yl)-7-methoxypyrido[3,2-d]pyrimidin-6-yl)-1-(trifluoromethyl)cyclopropane-1-carboxamide]: the IC50 was 1.6 nM at EGFR L858R, 0.9 nM on EGFR (d746-750) and 0.5 nM in experiment [1].

For the compound `COc1cc2ncnc(-c3cn(C)nc3-c3ccccc3)c2cc1OC1CCOCC1` [Example 14, 7-methoxy-4-(1-methyl-3-phenyl-1H-pyrazol-4-yl)-6-((tetrahydro-2H-pyran-4-yl)oxy)quinazoline], the IC50 was found to be 3.6 nM at EGFR L858R, 2 nM at EGFR (d746-750) and 5 nM in experiment [1].

On to `COc1cc2ncnc(-c3cn(C)nc3-c3ccccc3)c2cc1NC(=O)C1(CN(C)C)CC1` [Example 189, 1-((dimethylamino)methyl)-N-(7-methoxy-4-(1-methyl-3-phenyl-1H-pyrazol-4-yl)quinazolin-6-yl)cyclopropane-1-carboxamide], for which the IC50 at EGFR L858R is 4 nM; at EGFR (d746-750), 1.9 nM; in experiment [1], 4.3 nM.

For the compound `COc1cc2ncnc(-c3cn(CC(F)F)nc3-c3ccccc3)c2nc1NC(=O)C1(C(F)(F)F)CC1` [Example 370, N-(4-(1-(2,2-difluoroethyl)-3-phenyl-1H-pyrazol-4-yl)-7-methoxypyrido[3,2-d]pyrimidin-6-y1)-1-(trifluoromethyl)cyclopropane-1-carboxamide], the half-maximal inhibitory concentration (IC50) worked out at 1.1 nM at EGFR L858R, 0.7 nM at EGFR (d746-750) and 0.4 nM in experiment [1].

Consider `COc1cc2ncnc(-c3cn(C)nc3-c3ccccc3)c2cc1NC(=O)[C@@H](C)CN(C)C` (single isomer, unassigned) [Example 238, (S)-3-(dimethylamino)-N-(7-methoxy-4-(1-methyl-3-phenyl-1H-pyrazol-4-yl)quinazolin-6-yl)-2-methylpropanamide or (R)-3-(dimethylamino)-N-(7-methoxy-4-(1-methyl-3-phenyl-1H-pyrazol-4-yl)quinazolin-6-yl)-2-methylpropanamide], for which the half-inhibitory concentration (IC50) on EGFR L858R was determined as 12 nM; on EGFR (d746-750), 8.2 nM; in experiment [1] it was 26 nM.

For `COc1cc2ncnc(-c3cn(C)nc3-c3ccccc3)c2nc1O[C@H](C)c1cnnn1C` [Example 41, (R)-7-methoxy-6-(1-(1-methyl-1H-1,2,3-triazol-5-yl)ethoxy)-4-(1-methyl-3-phenyl-1H-pyrazol-4-yl)pyrido[3,2-d]pyrimidine], the results for the IC50 (on EGFR L858R; on EGFR (d746-750); in experiment [1]) were 8.3 nM, 4.1 nM and 9.2 nM, respectively.

As for `COc1cc2ncnc(-c3cn(C)nc3-c3ccccc3F)c2cc1OC(=O)N1CCN(C)C[C@@H]1C` [Example 66, 4-(3-(2-fluorophenyl)-1-methyl-1H-pyrazol-4-yl)-7-methoxyquinazolin-6-yl (S)-2,4-dimethylpiperazine-1-carboxylate], the IC50 on EGFR L858R was determined as 2.9 nM; at EGFR (d746-750) it was 2.2 nM; in experiment [1] it was 5.2 nM.
